Data reported in PubChem BioAssay (NCI).
Where “and” joins values, the source holds several entries; their conditions need not be identical. Equal values may be shown once.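 These data come from cells grown in 96-well plates and exposed to compound for 48 hours at five concentrations. Here, GI50 denotes the concentration required for 50% inhibition of growth. TGI is the concentration that stops growth completely.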

Tests used:
Experiment in all cases: NCI-60 cell line screen, 48 h
SN12C renal = system: SN12C renal
MDA-N = system: MDA-N
RPMI-8226 leukemia = system: RPMI-8226 leukemia
UO-31 renal = system: UO-31 renal
SK-MEL-28 melanoma = system: SK-MEL-28 melanoma
MDA-MB-231 breast = system: MDA-MB-231 breast
K-562 leukemia = system: K-562 leukemia
ACHN renal = system: ACHN renal
MDA-MB-435 = system: MDA-MB-435
NCI-H226 lung = system: NCI-H226 lung

Structure (SMILES): COc1cc(O)c(C(=O)/C=C/c2ccc(O)cc2)cc1Oc1ccc(C(=O)/C=C/c2ccc(O)cc2)c(O)c1
- TGI (SN12C renal): 5.99 µM
- TGI (MDA-N): 12.1 µM
- TGI (RPMI-8226 leukemia): 6.49 µM
- TGI (UO-31 renal): 7.06 µM
- TGI (SK-MEL-28 melanoma): 4.11 µM
- TGI (MDA-MB-231 breast): 9.75 µM
- TGI (K-562 leukemia): 10.7 µM
- TGI (ACHN renal): 5.02 µM
- TGI (MDA-MB-435): 11.8 µM

Structure (SMILES): Cc1cc2nc3c(C#N)c(-c4ccccc4)/c(=C\Nc4cccc(C(F)(F)F)c4)c(=O)n3c2cc1C
- TGI (SN12C renal): > 100 µM
- TGI (MDA-N): > 100 µM
- TGI (NCI-H226 lung): > 100 µM
- TGI (RPMI-8226 leukemia): > 100 µM
- TGI (UO-31 renal): > 100 µM
- TGI (SK-MEL-28 melanoma): > 100 µM
- TGI (MDA-MB-231 breast): > 100 µM
- TGI (ACHN renal): > 100 µM
- TGI (MDA-MB-435): > 100 µM

Structure (SMILES): COC(=O)CCCc1ccc2c(c1)CCC2
- TGI (SN12C renal): > 100 µM
- TGI (MDA-N): > 100 µM
- TGI (NCI-H226 lung): > 100 µM
- TGI (RPMI-8226 leukemia): > 100 µM
- TGI (UO-31 renal): > 100 µM
- TGI (SK-MEL-28 melanoma): > 100 µM
- TGI (MDA-MB-231 breast): > 100 µM
- TGI (ACHN renal): > 100 µM
- TGI (MDA-MB-435): > 100 µM

Structure (SMILES): CN1CCN(c2ccc3nc(-c4ccc(OCCCN5C(=O)c6cccc7cccc(c67)C5=O)cc4)[nH]c3c2)CC1
- GI50 (SN12C renal): 15.6 µM
- TGI (SN12C renal): 34.8 µM
- GI50 (NCI-H226 lung): 19.8 µM
- TGI (NCI-H226 lung): 51.2 µM
- GI50 (RPMI-8226 leukemia): 2.58 µM
- TGI (RPMI-8226 leukemia): 7.75 µM
- GI50 (UO-31 renal): 14.5 µM
- TGI (UO-31 renal): 43.1 µM
- GI50 (MDA-MB-231 breast): 1.41 µM
- TGI (MDA-MB-231 breast): 2.76 µM
- GI50 (K-562 leukemia): 0.889 µM
- TGI (K-562 leukemia): 4.54 µM
- GI50 (ACHN renal): 5.34 µM
- TGI (ACHN renal): 11.2 µM

Structure (SMILES): CC(=O)OC1COC(N2C(=O)C(=O)c3cc(Br)c([N+](=O)[O-])cc32)C(OC(C)=O)C1OC(C)=O (centres undefined)
- TGI (SN12C renal): > 100 µM
- TGI (NCI-H226 lung): > 100 µM
- TGI (RPMI-8226 leukemia): > 100 µM
- TGI (SK-MEL-28 melanoma): > 100 µM
- TGI (K-562 leukemia): 72.4 µM
- TGI (ACHN renal): > 100 µM

Structure (SMILES): COc1cc(-c2ccc(-c3ccc(C(=N)N)s3)s2)cc(OC)c1OC
- GI50 (SN12C renal): 1.61 µM
- TGI (SN12C renal): 3.17 µM
- GI50 (RPMI-8226 leukemia): 2.46 µM
- TGI (RPMI-8226 leukemia): 5.72 µM
- GI50 (UO-31 renal): 1.74 µM
- TGI (UO-31 renal): 3.54 µM
- GI50 (K-562 leukemia): 1.11 µM
- TGI (K-562 leukemia): 3.41 µM
- GI50 (ACHN renal): 1.78 µM
- TGI (ACHN renal): 3.17 µM
- GI50 (MDA-MB-435): 1.64 µM
- TGI (MDA-MB-435): 3.09 µM

Structure (SMILES): O=C(/C=C1\N=C(c2ccccc2)N(c2ccc3c(c2)Sc2cc(N4C(=O)/C(=C/C(=O)/C=C/c5ccccc5)N=C4c4ccccc4)ccc2N3)C1=O)/C=C/c1ccccc1
- TGI (SN12C renal): > 100 µM
- TGI (RPMI-8226 leukemia): > 100 µM
- TGI (UO-31 renal): > 100 µM
- TGI (SK-MEL-28 melanoma): > 100 µM
- TGI (MDA-MB-231 breast): 90 µM
- TGI (K-562 leukemia): > 100 µM
- TGI (ACHN renal): > 100 µM
- TGI (MDA-MB-435): 44.4 µM

Structure (SMILES): CC(=O)c1nc2ccccc2n1CC(=O)c1ccc([N+](=O)[O-])cc1
- TGI (SN12C renal): > 100 µM
- TGI (NCI-H226 lung): 57.9 µM
- TGI (RPMI-8226 leukemia): > 100 µM
- TGI (UO-31 renal): 45.9 µM
- TGI (SK-MEL-28 melanoma): > 100 µM
- TGI (MDA-MB-231 breast): > 100 µM
- TGI (K-562 leukemia): > 100 µM
- TGI (MDA-MB-435): > 100 µM

Structure (SMILES): N#CC(C(=O)c1ccccc1F)c1nc2cc(C(F)(F)F)ccc2s1 (centres undefined)
- TGI (SN12C renal): 67.2 µM
- TGI (NCI-H226 lung): > 100 µM
- TGI (RPMI-8226 leukemia): 85 µM
- TGI (SK-MEL-28 melanoma): > 100 µM
- TGI (MDA-MB-231 breast): > 100 µM
- TGI (ACHN renal): 94.6 µM
- TGI (MDA-MB-435): > 100 µM

Structure (SMILES): CCOC(=O)c1c(OCC)[nH]c(=O)c(C(c2ccc(F)cc2)c2c(O)c(C(=O)OCC)c(OCC)[nH]c2=O)c1O
- TGI (SN12C renal): 30.2 µM
- TGI (NCI-H226 lung): 26.1 µM
- TGI (RPMI-8226 leukemia): 58.3 µM
- TGI (UO-31 renal): 25.7 µM
- TGI (SK-MEL-28 melanoma): 27 µM
- TGI (MDA-MB-231 breast): 29.8 µM
- TGI (K-562 leukemia): 50.8 µM
- TGI (ACHN renal): 31.7 µM
- TGI (MDA-MB-435): 37.7 µM

Structure (SMILES): CC1(C)COC(c2cccc(C3=NC(C)(C)CO3)c2)=N1
- TGI (NCI-H226 lung): > 100 µM
- TGI (RPMI-8226 leukemia): > 100 µM
- TGI (UO-31 renal): > 100 µM
- TGI (SK-MEL-28 melanoma): > 100 µM
- TGI (MDA-MB-231 breast): > 100 µM
- TGI (K-562 leukemia): > 100 µM
- TGI (ACHN renal): > 100 µM
- TGI (MDA-MB-435): > 100 µM

Structure (SMILES): COc1cc2c(cc1-c1c(C)noc1C)ncc1nc(C3CCCCC3)n(C3CCC(OC(F)F)CC3)c12 (centres undefined)
- GI50 (SK-MEL-28 melanoma): 1.67 µM
- TGI (SK-MEL-28 melanoma): > 100 µM
- GI50 (MDA-MB-231 breast): 1.72 µM
- TGI (MDA-MB-231 breast): > 100 µM
- GI50 (K-562 leukemia): 1.75 µM
- TGI (K-562 leukemia): > 100 µM
- GI50 (MDA-MB-435): 2.14 µM
- TGI (MDA-MB-435): > 100 µM

Structure (SMILES): COc1ccc(NS(=O)C2CCCCC2)cc1 (centres undefined)
- TGI (SN12C renal): > 100 µM
- TGI (NCI-H226 lung): > 100 µM
- TGI (RPMI-8226 leukemia): > 100 µM
- TGI (UO-31 renal): > 100 µM
- TGI (SK-MEL-28 melanoma): > 100 µM
- TGI (MDA-MB-231 breast): > 100 µM
- TGI (K-562 leukemia): > 100 µM
- TGI (ACHN renal): > 100 µM
- TGI (MDA-MB-435): > 100 µM

Structure (SMILES): CCCCN(CCCC)CC(=O)c1ccc2cc(Cl)c3ccccc3c2c1
- TGI (SN12C renal): > 100 µM
- TGI (NCI-H226 lung): 89.5 µM
- TGI (RPMI-8226 leukemia): > 100 µM
- TGI (UO-31 renal): 50.4 µM
- TGI (MDA-MB-231 breast): > 100 µM
- TGI (K-562 leukemia): > 100 µM
- TGI (ACHN renal): 49 µM
- TGI (MDA-MB-435): > 100 µM

Structure (SMILES): COc1ccccc1NC(=S)N/N=C(/c1ccccc1)c1ccccn1
- TGI (SN12C renal): 16.7 µM
- TGI (MDA-N): 21.5 µM
- TGI (NCI-H226 lung): 8.64 µM
- TGI (RPMI-8226 leukemia): 6.14 µM
- TGI (UO-31 renal): 14.1 µM
- TGI (SK-MEL-28 melanoma): 23.9 µM
- TGI (MDA-MB-231 breast): 11.4 µM
- TGI (ACHN renal): 11.8 µM
- TGI (MDA-MB-435): 20 µM

Structure (SMILES): CC(C)(C)CC(C)(C)Cc1ccc(OCCOCC[N+](C)(C)Cc2ccccc2)cc1
- GI50 (SN12C renal): 1.57 µM
- TGI (SN12C renal): 3.04 µM
- GI50 (NCI-H226 lung): 1.79 µM
- TGI (NCI-H226 lung): 6.72 µM
- GI50 (UO-31 renal): 14.2 µM
- TGI (UO-31 renal): 34.7 µM
- GI50 (SK-MEL-28 melanoma): 1.56 µM
- TGI (SK-MEL-28 melanoma): 3.08 µM
- GI50 (MDA-MB-231 breast): 1.51 µM
- TGI (MDA-MB-231 breast): 3.08 µM
- GI50 (K-562 leukemia): 0.966 µM
- TGI (K-562 leukemia): 3.57 µM
- GI50 (ACHN renal): 11.8 µM
- TGI (ACHN renal): 27 µM
- GI50 (MDA-MB-435): 1.33 µM
- TGI (MDA-MB-435): 2.66 µM

Structure (SMILES): CC1CCN(c2nnc(Cl)cc2C(=O)c2ccccc2)CC1
- TGI (SN12C renal): > 100 µM
- TGI (MDA-N): 53.2 µM
- TGI (UO-31 renal): > 100 µM
- TGI (SK-MEL-28 melanoma): > 100 µM
- TGI (MDA-MB-231 breast): 96.2 µM
- TGI (K-562 leukemia): > 100 µM
- TGI (ACHN renal): > 100 µM
- TGI (MDA-MB-435): 56.9 µM

Structure (SMILES): Cn1c2ccccc2n2c(=O)c(-c3ccc(O)cc3)nnc12
- TGI (SN12C renal): > 100 µM
- TGI (NCI-H226 lung): > 100 µM
- TGI (UO-31 renal): > 100 µM
- TGI (SK-MEL-28 melanoma): > 100 µM
- TGI (MDA-MB-231 breast): > 100 µM
- TGI (ACHN renal): > 100 µM
- TGI (MDA-MB-435): > 100 µM

Structure (SMILES): CC(=O)OCC1OC(n2c(-c3ccccc3)c(N=Nc3ccc(Cl)cc3)c(C)c(C#N)c2=S)C(OC(C)=O)C(OC(C)=O)C1OC(C)=O (centres undefined)
- GI50 (SN12C renal): 12.2 µM and > 100 µM
- TGI (SN12C renal): > 100 µM
- TGI (MDA-N): > 100 µM
- GI50 (RPMI-8226 leukemia): 6.64 µM and 37.9 µM
- TGI (RPMI-8226 leukemia): > 100 µM
- GI50 (UO-31 renal): 5.87 µM and 47.3 µM
- TGI (UO-31 renal): 27.1 µM and > 100 µM
- GI50 (SK-MEL-28 melanoma): 4.58 µM and 30.3 µM
- TGI (SK-MEL-28 melanoma): 16.9 µM and > 100 µM
- GI50 (MDA-MB-231 breast): 20.3 µM and 45.2 µM
- TGI (MDA-MB-231 breast): > 100 µM
- TGI (K-562 leukemia): 28.6 µM and > 100 µM
- GI50 (ACHN renal): 6.95 µM and 34.6 µM
- TGI (ACHN renal): > 100 µM
- TGI (MDA-MB-435): 41.1 µM and > 100 µM

Structure (SMILES): CC1OC(OC2C(CO)OC(O[C@H]3CC[C@@]4(C)C(=CC[C@H]5[C@@H]6C[C@@H]7O[C@](O)(CC[C@@H](C)COC8OC(CO)C(O)C(O)C8O)[C@@H](C)[C@@H]7[C@@]6(C)CC[C@@H]54)C3)C(OC3OC(C)C(O)C(O)C3O)C2O)C(O)C(O)C1O (some centres undefined)
- GI50 (SN12C renal): 2.71 µM
- TGI (SN12C renal): 6.95 µM
- TGI (MDA-N): 8.67 µM
- TGI (RPMI-8226 leukemia): 10.2 µM
- TGI (UO-31 renal): 8.39 µM
- TGI (SK-MEL-28 melanoma): 7.55 µM
- TGI (MDA-MB-231 breast): 14.8 µM
- TGI (K-562 leukemia): > 43.4 µM
- TGI (ACHN renal): 12.2 µM
- TGI (MDA-MB-435): 9.32 µM
